{"source": "patent US5536853A", "about": "“Opiate receptor ligands” (Chiron Corporation, priority 1994, dated 1996)"}
{"molecular_target": "T1, μ-specific opiate receptor (Rattus norvegicus, UniProt P33535)", "T1 construct": "Rat forebrains were homogenized and washed; from tissue; host or cells: rat forebrain membranes", "T1 sequence (P33535 whole entry)": "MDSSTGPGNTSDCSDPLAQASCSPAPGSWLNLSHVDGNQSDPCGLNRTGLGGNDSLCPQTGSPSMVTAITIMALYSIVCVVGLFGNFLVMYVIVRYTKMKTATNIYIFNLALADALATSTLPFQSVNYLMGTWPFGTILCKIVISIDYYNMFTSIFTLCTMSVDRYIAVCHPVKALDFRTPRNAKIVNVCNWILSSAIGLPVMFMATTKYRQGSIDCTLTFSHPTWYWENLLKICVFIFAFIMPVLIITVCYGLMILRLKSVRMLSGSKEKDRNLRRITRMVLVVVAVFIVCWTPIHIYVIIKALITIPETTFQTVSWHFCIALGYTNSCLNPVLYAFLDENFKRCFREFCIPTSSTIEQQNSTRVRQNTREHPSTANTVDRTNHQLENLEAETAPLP", "test": "in vitro solution-phase radioligand competition assay ([3H]-DAMGO, rat forebrain membranes)", "type": "binding", "details": "1 nM [3H]-DAMGO, pH 7.5, 1 hr room temperature", "description": "(§1) Compounds were screened in vitro using the following assay:\n(§2) High-affinity ligands for the μ-specific opiate receptor were identified from a diverse peptoid library by testing the pools of compounds in solution-phase radioligand competition assays, and tracing the binding activity to individual compounds by iterative resynthesis and screening of smaller sub-pools.\n(§3) Rat forebrains were homogenized and washed in 50 mM Tris, pH 7.5 containing 20 mM NaCl, 5 mM EGTA, 2 mM MgCl2, 21 μg/mL aprotinin, 0.5 mg/L leupeptin, 0.7 mg/L pepstatin, 0.2 Mm PMSF. 50 μL of membrane (10 mg/mL protein) were dispensed into 1 mL of 50 mM Tris, pH 7.5, 1 nM [^3 H]-DAMGO and the peptoid mixture. All assays were performed at 100 nM per peptoid.\n(§4) Nonspecific binding was determined as [^3 H]-DAMGO bound in the presence of 1 μM naloxone. Incubation was for 1 hr at room temperature. Unbound radioactivity was removed by rinsing the membranes on Whatman GF/B glass fiber filters. Each filter was washed 3 times with 3 mL of 50 mM Tris, pH 7.5, 4° C. Filters were soaked overnight in 5 mL of Beckman ReadySafe scintillation cocktail and then counted for one minute in a Wallac 1409 liquid scintillation counter. Assays were performed in duplicate.", "units": {"Ki": "µM"}}
{"molecule": "NC(=O)CN(CCc1ccc(O)cc1)C(=O)CN(Cc1ccc2c(c1)OCO2)C(=O)CNCC(c1ccccc1)c1ccccc1", "note": "[CHIR-4531, Nbhm-Nmdb-Nhtyr]", "Ki": 0.007}
{"molecule": "CCCCCN(CC(=O)N(CCc1ccc(O)cc1)CC(N)=O)C(=O)CNCC(c1ccccc1)c1ccccc1", "note": "[CHIR-4534, Nbhm-Npen-Nhtyr]", "Ki": 0.03}
{"molecule": "COc1ccc(CN(CC(=O)N(CCc2ccc(O)cc2)CC(N)=O)C(=O)CNCC(c2ccccc2)c2ccccc2)cc1OC", "note": "[CHIR-4537, Nbhm-Nddb-Nhtyr]", "Ki": 0.045}
{"molecular_target": "T1, μ-specific opiate receptor", "test": "in vitro solution-phase radioligand competition assay ([3H]-DAMGO, rat forebrain membranes)", "type": "binding", "details": "at 100 nM, 1 nM [3H]-DAMGO, pH 7.5, 1 hr room temperature", "description": "as §1, §2, §3, §4", "units": {"inhibition at 0.1 µM": "%"}}
{"molecule": "NC(=O)CN(CCc1ccc(O)cc1)C(=O)CN(Cc1ccc2c(c1)OCO2)C(=O)CNCCC(c1ccccc1)c1ccccc1", "note": "[CHIR 4622, Nbhe-Nmdb-Nhtyr]", "inhibition at 0.1 µM": 78}
{"molecule": "COc1cc(CN(CC(=O)N(CCc2ccc(O)cc2)CC(N)=O)C(=O)CNCC(c2ccccc2)c2ccccc2)cc(OC)c1OC", "note": "[CHIR 4626, Nbhm-Ntrnb-Nhtyr]", "inhibition at 0.1 µM": 86}
{"molecule": "NC(=O)CN(CCc1ccc(O)cc1)C(=O)CN(Cc1ccccc1)C(=O)CNCC(c1ccccc1)c1ccccc1", "note": "[CHIR 4627, Nbhm-Nphe-Nhtyr]", "inhibition at 0.1 µM": 90}
{"molecule": "NC(=O)CN(CCc1ccccc1)C(=O)CN(Cc1ccccc1)C(=O)CNCC(c1ccccc1)c1ccccc1", "note": "[CHIR 4628, Nbhm-Nphe-Nhphe]", "inhibition at 0.1 µM": 77}
{"molecule": "NC(=O)CN(CCc1ccc(O)cc1)C(=O)CN(Cc1ccc2c(c1)OCO2)C(=O)C=CCNCC(c1ccccc1)c1ccccc1", "note": "[CHIR 5045, Nvbhm-Nmdb-Nhtyr]", "inhibition at 0.1 µM": 58}
{"molecule": "CC(NCC(c1ccccc1)c1ccccc1)C(=O)N(CC(=O)N(CCc1ccc(O)cc1)CC(N)=O)Cc1ccc2c(c1)OCO2", "note": "(stereo not shown) [CHIR 5052, Nbha-Nmdb-Nhtyr]", "inhibition at 0.1 µM": 73}
{"molecule": "NC(=O)CN(CCc1ccc(O)cc1)C(=O)CN(Cc1ccc2c(c1)OCO2)C(=O)CNCC=C(c1ccccc1)c1ccccc1", "note": "[CHIR 5062, Nbvp-Nmdb-Nhtyr]", "inhibition at 0.1 µM": 65}
